In brackets after ≈: the same amount, converted by molar mass. Read-outs that look alike come from different tables or passages of the source.
Experiments:
Assay in all cases: microbe, parasite or virus in culture
K. pneumoniae = conditions: Klebsiella pneumoniae
Method in brief: (§1)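 MICs were scored by eye after 18-20 h static incubation at 37 °C, with bacteria at 5 × 10^5 CFU mL^−1 in MHB. Peptides were serially diluted 2-fold over 12 points, top 128 or 64 μg mL^−1. CAMHB (CLSI) and 1% agarose-MHB variants were also run, at least six replicates.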

E. coli = conditions: Escherichia coli
Method in brief: as §1

P. aeruginosa = conditions: Pseudomonas aeruginosa, mode of 6 replicates
Method in brief: as §1

S. enterica Typhi = conditions: Salmonella enterica, ATCC14028 / TYPHI, read-out: BMD MIC
Method in brief: as §1

A. baumannii = conditions: Acinetobacter baumannii, ATCC19636, read-out: BMD MIC, A. baumannii ATCC 19636 type strain; MHB; mode of 6 replicates
Method in brief: as §1

S. aureus = test system: S. aureus
Method in brief: as §1

[1] = BAA2146, read-out: BMD MIC, K. pneumoniae BAA-2146, MDR, ESBL, NDM-1 pos, MHB, mode of 6 replicates

Compound	MIC (K. pneumoniae; ATCC13883, read-out: BMD MIC, K. pneumoniae ATCC 13883 type strain (polymyxin/colistin heteroresistant), MHB, mode of 6 replicates) [µg/mL]	MIC (K. pneumoniae; [1]) [µg/mL]	MIC (E. coli; ATCC25922, read-out: BMD MIC, E. coli ATCC 25922 FDA control strain, CAMHB, mode of 6 replicates) [µg/mL]	MIC (E. coli; ATCC25922, read-out: BMD MIC, E. coli ATCC 25922 FDA control strain, MHB, mode of 6 independent biological replicates) [µg/mL]	MIC (E. coli; ATCC700926 / MG1655, read-out: BMD MIC) [µg/mL]	MIC (E. coli; ATCC700928, read-out: BMD MIC, E. coli ATCC 700928 CFT073 UPEC, CAMHB, mode of 6 replicates) [µg/mL]	MIC (E. coli; read-out: BMD MIC) [µg/mL]	MIC (P. aeruginosa; ATCC27853, read-out: BMD MIC, P. aeruginosa ATCC 27853 control strain, CAMHB) [µg/mL]	MIC (P. aeruginosa; ATCC27853, read-out: BMD MIC, P. aeruginosa ATCC 27853 control strain, MHB) [µg/mL]	MIC (S. enterica Typhi) [µg/mL]	MIC (K. pneumoniae; ATCC13883, read-out: BMD MIC) [µg/mL]	MIC (K. pneumoniae; ATCC700603, read-out: BMD MIC, K. pneumoniae ATCC 700603 (K6), MDR, OXA-2/SHV-18, MHB, mode of 6 replicates) [µg/mL]	MIC (A. baumannii) [µg/mL]	MIC (P. aeruginosa; read-out: BMD MIC, P. aeruginosa FADDI-070, MDR, PmxR, MHB/CAMHB) [µg/mL]	BMD MIC (S. aureus; S. aureus ATCC 25923 MSSA, CAMHB, mode of 6 replicates) [µg/mL]	MIC (S. aureus; Staphylococcus aureus, ATCC25923 / MSSA, read-out: BMD MIC) [µg/mL]
O=C(O)c1cn(C2CC2)c2cc(N3CCNCC3)c(F)cc2c1=O [Ciprofloxacin, ciprofloxacin]	≤ 0.25	> 64	≤ 0.25	≤ 0.25	≤ 0.25	≤ 0.25	≤ 0.25	≤ 0.25	0.5 (≈ 1.51 µM)	0.004 (≈ 0.0121 µM)						
COc1cc(Cc2cnc(N)nc2N)cc(OC)c1OC [Trimethoprim]		> 64									1 (≈ 3.44 µM)	4 (≈ 13.8 µM)	16 (≈ 55.1 µM)	64 (≈ 220 µM)	2	2 (≈ 6.89 µM)

Source: publication PMC7311426, “An amphipathic peptide with antibiotic activity against multidrug-resistant Gram-negative bacteria” (Nature Communications, 2020)
